The record followed here is patent US10538512B2, “Aminoacylindazole immunomodulators for treatment of autoimmune diseases” (The Rockefeller University, priority 2016, dated 2020).

Assay [1] addresses T1, Human FXIIa (Homo sapiens, UniProt P00748).
T1 construct: active coagulation factor XII (FXIIa); purchased Enzyme Research Labs
T1 sequence (P00748 373-615 limits assumed): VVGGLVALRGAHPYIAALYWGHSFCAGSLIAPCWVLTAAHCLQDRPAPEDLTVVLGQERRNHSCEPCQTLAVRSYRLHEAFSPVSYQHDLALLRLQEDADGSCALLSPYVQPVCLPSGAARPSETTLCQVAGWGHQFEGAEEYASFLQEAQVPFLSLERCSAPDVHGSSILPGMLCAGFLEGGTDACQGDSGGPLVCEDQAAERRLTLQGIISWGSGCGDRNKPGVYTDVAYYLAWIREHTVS
T1 sequence (P00748 20-372 partner limits assumed): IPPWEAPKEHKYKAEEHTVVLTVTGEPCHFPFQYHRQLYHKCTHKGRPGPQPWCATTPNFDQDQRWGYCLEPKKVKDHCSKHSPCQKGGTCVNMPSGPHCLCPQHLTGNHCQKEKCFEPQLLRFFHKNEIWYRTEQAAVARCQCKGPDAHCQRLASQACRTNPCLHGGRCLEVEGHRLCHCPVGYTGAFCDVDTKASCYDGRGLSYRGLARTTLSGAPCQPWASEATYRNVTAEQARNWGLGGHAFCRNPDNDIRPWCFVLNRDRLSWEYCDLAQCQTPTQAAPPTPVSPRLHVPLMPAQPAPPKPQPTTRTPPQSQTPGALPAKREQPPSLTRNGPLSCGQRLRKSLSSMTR
Briefly: Factor XIIa (FXIIa) inhibitory activity, chromogenic substrate assay. It is filed as biochemical. The note with it: Human FXIIa 12.5 nM, Pefachrome XIIa 400 μM, 10 min preincubation. The method in brief: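 Activity was taken as the rate of absorbance increase at 405 nm, read at 37 °C after adding 400 μM (final) Pefachrome XIIa. Compounds spanning roughly 1–100 μM were first preincubated with enzyme for 10 min at room temperature in HEPES pH 7.4-buffered HBSS/TBS-Tween.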

Assay [2] addresses T2, Human alpha-thrombin (Homo sapiens, UniProt P00734).
T2 construct: Human alpha-thrombin (Enzyme Research Labs); purchased Enzyme Research Labs
Briefly: Thrombin counterscreen for selectivity, fluorogenic substrate assay. It is filed as biochemical. As to conditions: Human alpha-thrombin 12.5 nM, Boc-Val-Pro-Arg-AMC 20 μM, 10 min preincubation. The method, then: Counterscreens for Selectivity:
In a 96-well white opaque plate, 80 μl of assay buffer was added to each well. Test compounds were added, and serially diluted as above, to generate a concentration range of approximately 1-100 μM. […] 80 μl of this enzyme solution was added to the assay wells. The enzyme/compound mixtures were incubated for 10 minutes at room temperature. Fluorogenic substrate (Boc-Val-Pro-Arg-7-amido-4-methylcoumarin; Sigma) was added to assay wells at a final concentration of 20 μM. The assay plate was spun for 1 minute at 1500 g and then read at 37° C. in a SpectraMax M2 plate reader (λex=380 nm and λem=460 nm). Activity was quantified as the rate of change in fluorescence, which corresponds to the rate of substrate cleavage.

By IC50 is commonly meant the concentration needed to halve the response being measured. Consider `Nc1c2c(nn1C(=O)[C@@H]1CCNc3ccc(F)cc31)CC[C@H](O)C2` (relative stereo) [Example 134, ((5S*)-3-amino-5-hydroxy-4,5,6,7-tetrahydro-1H-indazol-2-yl)((4R*)-6-fluoro-1,2,3,4-tetrahydroquinolin-4-yl)methanone], for which the figures for the concentration for half-maximal inhibition (IC50) in assay [1] and in assay [2] were 1200 nM and more than 75 µM, respectively. On the same counts, the results for `Nc1c2c(nn1C(=O)c1cccc3[nH]ccc13)CCCC2` (single isomer, unassigned) [Example 1, (3-Amino-4,5,6,7-tetrahydro-2H-indazol-2-yl)(1H-indol-4-yl)methanone] are 100 nM and 25 µM. On the same counts, the results for `Nc1nn(C(=O)c2cccc3[nH]ccc23)c2c1CCCC2` (single isomer, unassigned) [Example 2, (3-amino-4,5,6,7-tetrahydroindazol-1-yl)(1H-indol-4-yl)methanone] are more than 50000 nM and more than 50 µM.

On to `Cc1c2c(nn1C(=O)c1cccc3[nH]ccc13)CCCC2` (single isomer, unassigned) [Example 3, (1H-Indol-4-yl)(3-methyl-4,5,6,7-tetrahydroindazol-2-yl)methanone], for which the IC50 is 5000 nM in assay [1] and 33 µM in assay [2]. On the same counts, the results for `Cc1nn(C(=O)c2cccc3[nH]ccc23)c2c1CCCC2` (single isomer, unassigned) [Example 4, (1H-indol-4-yl)(3-methyl-4,5,6,7-tetrahydroindazol-1-yl)methanone] are 65000 nM and 45 µM. Consider `Nc1c2c(nn1C(=O)C1CCCc3ccccc31)CCCC2` (single isomer, unassigned) [Example 5, (S*)-(3-Amino-4,5,6,7-tetrahydroindazol-2-yl)(1,2,3,4-tetrahydronaphthalen-1-yl)methanone], for which the IC50 in assay [1] is 1700 nM; in assay [2], more than 50 µM.

Turning to `Nc1c2c(nn1C(=O)C1CCCc3ccccc31)CCCC2` (single isomer, unassigned) [Example 6, (R*)-(3-amino-4,5,6,7-tetrahydroindazol-2-yl)(1,2,3,4-tetrahydronaphthalen-1-yl)methanone], the concentration for half-maximal inhibition (IC50) was not below 50000 nM in assay [1] and more than 50 µM in assay [2].

For the molecule `Cn1ccc2c(C(=O)n3nc4c(c3N)CCCC4)cccc21` (single isomer, unassigned) [Example 7, (3-Amino-4,5,6,7-tetrahydroindazol-2-yl)(1-methyl-1H-indol-4-yl)methanone], the 50% inhibitory concentration (IC50) amounted to 150 nM in assay [1] and 30 µM in assay [2]. Turning to `Nc1nn(C(=O)c2cccc3c2ccn3-c2ccccc2)c2c1CCCC2` (single isomer, unassigned) [Example 21, (3-amino-4,5,6,7-tetrahydroindazol-1-yl)(1-phenyl-1H-indol-4-yl)methanone], the IC50 in assay [2] is more than 100 µM. On the same count and under the same terms, for `CN1CCC(C(=O)n2nc(N)c3c2CCCC3)c2ccccc21` (single isomer, unassigned) [Example 26, (3-amino-4,5,6,7-tetrahydroindazol-1-yl)(1-methyl-1,2,3,4-tetrahydroquinolin-4-yl)methanone] the value was more than 80 µM. In the case of `C=Cc1cc2c(C(=O)n3nc(N)c4c3CCCC4)cccc2[nH]1` (single isomer, unassigned) [Example 71, (3-amino-4,5,6,7-tetrahydroindazol-1-yl)(2-vinyl-1H-indol-4-yl)methanone], the IC50 in assay [2] stood at 55 µM. Still for that read-out and setting: then `Nc1c2c(nn1C(=O)[C@@H]1CCNc3ccccc31)CC[C@@H](O)C2` (single isomer, unassigned) [Example 166, ((5R*)-3-amino-5-hydroxy-4,5,6,7-tetrahydroindazol-2-yl)((4R*)-1,2,3,4-tetrahydroquinolin-4-yl)methanone], with more than 100 µM.

Molecule `Nc1c2c(nn1C(=O)C1CCNc3cc(Cl)ccc31)CCCC2` (stereo not shown) [Example 103, (3-amino-4,5,6,7-tetrahydroindazol-2-yl)(7-chloro-1,2,3,4-tetrahydroquinolin-4-yl)methanone] came in with an IC50 in assay [1] of 700 nM. Still for that read-out and setting: then `Nc1nn(C(=O)C2CCNc3cc(Cl)ccc32)c2c1CCCC2` (stereo not shown) [Example 104, (3-amino-4,5,6,7-tetrahydroindazol-1-yl)(7-chloro-1,2,3,4-tetrahydroquinolin-4-yl)methanone], with more than 50000 nM; and `Nc1c2c(nn1C(=O)C1CCNc3cc(C(F)(F)F)ccc31)CCCC2` (stereo not shown) [Example 105, (3-amino-4,5,6,7-tetrahydro-2H-indazol-2-yl)(7-(trifluoromethyl)-1,2,3,4-tetrahydroquinolin-4-yl)methanone], with 1800 nM. Still for that read-out and setting: for `COc1ccc2c(c1)NCCC2C(=O)n1nc2c(c1N)CCCC2` (stereo not shown) [Example 110, (3-amino-4,5,6,7-tetrahydroindazol-2-yl)(7-methoxy-1,2,3,4-tetrahydroquinolin-4-yl)methanone] the value was 250 nM; for `COc1ccc2c(c1)NCCC2C(=O)n1nc(N)c2c1CCCC2` (stereo not shown) [Example 111, (3-amino-4,5,6,7-tetrahydroindazol-1-yl)(7-methoxy-1,2,3,4-tetrahydroquinolin-4-yl)methanone], more than 100000 nM; for `Cn1c(Cl)cc2c1CCCC2C(=O)n1nc2c(c1N)CCCC2` (stereo not shown) [Example 112, (3-amino-4,5,6,7-tetrahydroindazol-2-yl)(2-chloro-1-methyl-4,5,6,7-tetrahydro-1H-indol-4-yl)methanone], 180 nM. The same measure, in the same setting: for `CCc1cc2c(C(=O)n3nc4c(c3N)CCCC4)ccnc2[nH]1` [Example 113, (3-amino-4,5,6,7-tetrahydro-2H-indazol-2-yl)(2-ethyl-1H-pyrrolo[2,3-b]pyridin-4-yl)methanone] the value was 50 nM; for `CCc1cc2c(C(=O)n3nc(N)c4c3CCCC4)ccnc2[nH]1` [Example 114, (3-amino-4,5,6,7-tetrahydro-1H-indazol-1-yl)(2-ethyl-1H-pyrrolo[2,3-b]pyridin-4-yl)methanone], more than 100000 nM; for `Nc1c2c(nn1C(=O)C1CCNc3cc(F)ccc31)CCCC2` (stereo not shown) [Example 115, (3-amino-4,5,6,7-tetrahydroindazol-2-yl)(7-fluoro-1,2,3,4-tetrahydroquinolin-4-yl)methanone], 400 nM.

For the molecule `Cc1cc2c(C(=O)n3nc4c(c3N)CC(OCc3ccccc3)CC4)cccc2[nH]1` (stereo not shown) [Example 117, (3-amino-5-(benzyloxy)-4,5,6,7-tetrahydroindazol-2-yl)(2-methyl-1H-indol-4-yl)methanone], the concentration for half-maximal inhibition (IC50) in assay [1] is 30 nM. As to `Cc1cc2c(C(=O)n3nc(N)c4c3CCC(OCc3ccccc3)C4)cccc2[nH]1` (stereo not shown) [Example 118, (3-amino-5-(benzyloxy)-4,5,6,7-tetrahydroindazol-1-yl)(2-methyl-1H-indol-4-yl)methanone], the IC50 in assay [1] is 20000 nM.

In turn, `COC1CCc2nn(C(=O)c3cccc4[nH]c(C)cc34)c(N)c2C1` (stereo not shown) [Example 119, (3-amino-5-methoxy-4,5,6,7-tetrahydro-2H-indazol-2-yl)(2-methyl-1H-indol-4-yl)methanone] returned an IC50 in assay [1] of 50 nM.

In assay [1], `Nc1c2c(nn1C(=O)c1ccnc3cc(Cl)ccc13)CCCC2` [Example 123, (3-amino-4,5,6,7-tetrahydro-2H-indazol-2-yl)(7-chloroquinolin-4-yl)methanone] returned an IC50 of 2500 nM.

`Nc1nn(C(=O)c2c[nH]c3ccccc23)c2c1CCCC2` [Example 155] showed an IC50 in assay [2] of more than 100 µM. The molecule `Nc1c2c(nn1C(=O)c1ccnc3ccccc13)CCCC2` [Example 158] returned an IC50 in assay [1] of 13000 nM.

The molecule `Cc1cc2c(C(=O)n3cc4c(n3)CCCC4)cccc2[nH]1` [Example 159] yielded a half-maximal inhibitory concentration (IC50) in assay [1] of 150 nM.

In assay [1], `Cc1cc2c(C(=O)n3ncc4c3CCCC4)cccc2[nH]1` [Example 160] returned an IC50 of 6000 nM.

For the molecule `Cc1ccc2c(c1)N(C)CCC2C(=O)n1nc2c(c1N)CCCC2` (stereo not shown) [Example 163], 1500 nM corresponded to half-maximal inhibition in assay [1] (IC50). As for `Nc1nn(C(=O)C2CCNc3ccc(F)cc32)c2c1CC(F)(F)CC2` (stereo not shown) [Example 175, (3-amino-5,5-difluoro-4,5,6,7-tetrahydroindazol-1-yl)(6-fluoro-1,2,3,4-tetrahydroquinolin-4-yl)methanone], the IC50 in assay [1] was determined as 16000 nM. As for `Cc1cccc2c1NCCC2C(=O)n1nc(N)c2c1CCC=C2` (stereo not shown) [Example 196, (3-amino-6,7-dihydroindazol-1-yl)(8-methyl-1,2,3,4-tetrahydroquinolin-4-yl)methanone], in assay [1], the concentration for half-maximal inhibition (IC50) came to 7500 nM.
